Consider 25 molecules from US20240116896A1 (ATAI Life Sciences AG, priority 2022, published 2024).

The target of one experiment is 5-HT2A (Homo sapiens, UniProt P28223). Briefly: IPOne (IP1 HTRF) assay, CHO-K1 cells expressing human 5-HT2A. The format is cell-based. Also noted: expressed in transfected cells; host or cells: CHO-K1. Particulars: for activation at 0.3 µM / activation at 30 µM: CHO-K1, percentage of reference agonist α-Me-5-HT at its EC100; for EC50: CHO-K1, human 5-HT2A. On the procedure:
(§1) IPOne assays were performed using stably-transfected cell lines (CHO-K1) expressing human 5-HT2A or 5-HT2B receptors. Upon activation of these receptors, Gq-mediated myo-Inositol 1 phosphate (IP1) production is detected by a Homogeneous Time-Resolved Fluorescence (HTRF) competitive immunoassay, whereby an IP1 analog coupled to a fluorophore (acceptor) competes with endogenous IP1 for binding to a labeled anti-IP1 antibody (donor). The resulting signal is inversely proportional to the concentration of IP1 in the sample. Cells were incubated with an IP1 inhibitor (to prevent degradation and allow detection) and either reference compound or test compound. α-Me-5-HT was used as the assay reference agonist. Activation of 5-HT2A or 5-HT2B receptors was measured via accumulation of IP1 detected by HTRF. Agonist activity of test compounds was expressed as a percentage of the activity of the reference agonist at its EC100 concentration.
(In general: Time-resolved FRET reads energy transfer from a long-lived donor to a nearby acceptor.)

For a further experiment, the target named is 5-HT2B (Homo sapiens, UniProt P41595). Description: IPOne (IP1 HTRF) assay, CHO-K1 cells expressing human 5-HT2B. The experiment is classed as cell-based. Also noted: expressed in transfected cells; host or cells: CHO-K1. Particulars: for activation at 0.3 µM / activation at 30 µM: CHO-K1, percentage of reference agonist α-Me-5-HT at its EC100; for EC50: CHO-K1, human 5-HT2B. As to the method: as §1
Chain of 5-HT2B (P41595 whole entry): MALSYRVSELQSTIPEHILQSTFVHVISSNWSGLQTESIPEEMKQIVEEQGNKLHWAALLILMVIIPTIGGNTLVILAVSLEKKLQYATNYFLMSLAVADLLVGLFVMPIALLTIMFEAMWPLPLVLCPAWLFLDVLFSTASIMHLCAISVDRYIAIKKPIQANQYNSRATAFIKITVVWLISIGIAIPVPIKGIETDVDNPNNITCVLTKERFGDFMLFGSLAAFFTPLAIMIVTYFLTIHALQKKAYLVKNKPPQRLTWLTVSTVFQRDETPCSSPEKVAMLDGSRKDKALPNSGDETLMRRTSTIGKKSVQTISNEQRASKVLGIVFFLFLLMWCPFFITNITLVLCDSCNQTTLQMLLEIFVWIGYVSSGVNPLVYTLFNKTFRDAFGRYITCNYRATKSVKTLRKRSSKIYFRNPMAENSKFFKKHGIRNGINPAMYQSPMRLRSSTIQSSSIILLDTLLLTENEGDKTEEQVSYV

Chain of 5-HT2A (P28223 whole entry): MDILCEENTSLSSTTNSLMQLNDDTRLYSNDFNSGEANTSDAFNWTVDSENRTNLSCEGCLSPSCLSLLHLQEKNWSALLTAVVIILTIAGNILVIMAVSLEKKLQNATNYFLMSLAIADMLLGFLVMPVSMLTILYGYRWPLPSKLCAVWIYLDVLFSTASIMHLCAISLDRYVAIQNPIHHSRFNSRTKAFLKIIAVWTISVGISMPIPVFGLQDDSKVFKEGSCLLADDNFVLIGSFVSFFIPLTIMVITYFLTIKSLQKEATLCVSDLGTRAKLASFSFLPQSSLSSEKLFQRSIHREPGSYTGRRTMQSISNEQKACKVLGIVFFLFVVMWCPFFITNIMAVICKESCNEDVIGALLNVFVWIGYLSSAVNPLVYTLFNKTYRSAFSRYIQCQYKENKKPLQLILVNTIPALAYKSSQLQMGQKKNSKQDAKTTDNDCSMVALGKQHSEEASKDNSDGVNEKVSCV

With `OC1CCN(CCc2c[nH]c3ccccc23)C1` (stereo not shown) [Compound 7, 1-(2-(1H-indol-3-yl)ethyl)pyrrolidin-3-ol], on 5-HT2A, the activation at 0.3 µM was 7.01% and the activation at 30 µM amounted to 42%. On 5-HT2B, the activation at 0.3 µM was determined as 5.71% and the activation at 30 µM turned out to be 28.7%.
As to `NCC1CCCN1CCc1c[nH]c2ccccc12` (stereo not shown) [Compound 22], at 5-HT2A, the activation at 0.3 µM amounted to 10.2% and the activation at 30 µM amounted to 99%. Also, on 5-HT2B, the activation at 0.3 µM worked out at 20% and the activation at 30 µM was determined as 99.6%.
As to `OCC1CCCN1CCc1c[nH]c2cccc(O)c12` (stereo not shown) [Compound 29, 3-(2-(2-(hydroxymethyl)pyrrolidin-1-yl)ethyl)-1H-indol-4-ol], on 5-HT2A, the activation at 0.3 µM amounted to 99.4% and the activation at 30 µM stood at 99.2%. Moreover, at 5-HT2B, the activation at 0.3 µM is 90.8% and the activation at 30 µM was 96.4%.
Taken in the same sequence, the figures for `COc1ccc2[nH]cc(CCN3CCCC3CO)c2c1` (stereo not shown) [Compound 30] were 97.8%, 100%, 89.4% and 98.8%.
The term EC50 denotes the concentration that produces a half-maximal response. Low values mean an effect from little substance, high ones a need for much substance. For `OC[C@@H]1CCCN1CCc1c[nH]c2ccccc12` [Compound 31, (S)-(1-(2-(1H-indol-3-yl)ethyl)pyrrolidin-2-yl)methanol], on 5-HT2A, the EC50 turned out to be 62.1 nM, the activation at 0.3 µM turned out to be 76.5% and the activation at 30 µM worked out at 99.5%. Besides, at 5-HT2B, the EC50 amounted to 126 nM, the activation at 0.3 µM was 54.6% and the activation at 30 µM amounted to 97%.
Turning to `OC[C@H]1CCCN1CCc1c[nH]c2ccccc12` [Compound 32, (R)-(1-(2-(1H-indol-3-yl)ethyl)pyrrolidin-2-yl)methanol], at 5-HT2A, the activation at 0.3 µM stood at 7.16% and the activation at 30 µM is 42.1%. Further, on 5-HT2B, the activation at 0.3 µM worked out at 4.28% and the activation at 30 µM was determined as 33.9%.
With `COC(=O)[C@@H]1CCCN1CCc1c[nH]c2ccccc12` [Compound 33, methyl (2-(1H-indol-3-yl)ethyl)-L-prolinate], on 5-HT2A, the EC50 turned out to be 806 nM, the activation at 0.3 µM is 44% and the activation at 30 µM amounted to 94.4%. Moreover, at 5-HT2B, the EC50 came to 456 nM, the activation at 0.3 µM was determined as 33.9% and the activation at 30 µM was 91.3%.
For `COC(=O)[C@H]1CCCN1CCc1c[nH]c2ccccc12` [Compound 34, methyl (2-(1H-indol-3-yl)ethyl)-D-prolinate], on 5-HT2A, the activation at 0.3 µM was found to be 4.6% and the activation at 30 µM was 29.9%. On 5-HT2B, the activation at 0.3 µM was 1.34% and the activation at 30 µM stood at 35.1%.
Taken in the same sequence, the figures for `COc1ccc(Br)c2[nH]cc(CCN3CCCC3CO)c12` (stereo not shown) [Compound 42, (1-(2-(7-bromo-4-methoxy-1H-indol-3-yl)ethyl)pyrrolidin-2-yl)methanol] were 78.5%, 94.1%, 22% and 46.2%.
For the molecule `COc1cccc2[nH]cc(CCN3CCC[C@H]3CO)c12` [Compound 48, (S)-(1-(2-(4-methoxy-1H-indol-3-yl)ethyl)pyrrolidin-2-yl)methanol], on 5-HT2A, the EC50 is 11.2 nM, the activation at 0.3 µM amounted to 83.2% and the activation at 30 µM came to 90.9%. At 5-HT2B, the EC50 was found to be 22.2 nM, the activation at 0.3 µM amounted to 62% and the activation at 30 µM stood at 83.4%.
With `OC[C@@H]1CCCN1CCc1c[nH]c2cccc(O)c12` [Compound 49, (S)-3-(2-(2-(hydroxymethyl)pyrrolidin-1-yl)ethyl)-1H-indol-4-ol], on 5-HT2A, a half-maximal response (EC50) required 22.5 nM, the activation at 0.3 µM stood at 99.2% and the activation at 30 µM was found to be 100%. At 5-HT2B, the midpoint of the response, the EC50, lay at 43.2 nM; the activation at 0.3 µM was 92%; the activation at 30 µM was determined as 99.1%.
Take `COc1ccc2[nH]cc(CCN3CCC[C@H]3CO)c2c1` [Compound 50]: on 5-HT2A, a half-maximal response (EC50) required 12.5 nM, the activation at 0.3 µM stood at 100% and the activation at 30 µM was determined as 103%. Besides, at 5-HT2B, the 50% effective concentration (EC50) stood at 8.8 nM, the activation at 0.3 µM stood at 101% and the activation at 30 µM turned out to be 101%.
As for `OC[C@@H]1CCCN1CCc1c[nH]c2ccc(O)cc12` [Compound 51], at 5-HT2A, the EC50 stood at 45.6 nM, the activation at 0.3 µM worked out at 99% and the activation at 30 µM amounted to 101%. Further, at 5-HT2B, the EC50 turned out to be 86.7 nM, the activation at 0.3 µM was 85.7% and the activation at 30 µM was found to be 99.1%.
Consider `CCOC(=O)[C@@H]1CCCN1CCc1c[nH]c2ccccc12` [Compound 52, ethyl (2-(1H-indol-3-yl)ethyl)-L-prolinate], for which, on 5-HT2A, a half-maximal effect (EC50) was put at 888 nM, the activation at 0.3 µM was 24% and the activation at 30 µM was determined as 101%. For the same molecule, at 5-HT2B, it took 2560 nM to reach a half-maximal effect (EC50), the activation at 0.3 µM turned out to be 25.4% and the activation at 30 µM was found to be 99.2%.
Regarding `OC[C@H]1CCN1CCc1c[nH]c2ccccc12` [Compound 53, (R)-(1-(2-(1H-indol-3-yl)ethyl)azetidin-2-yl)methanol], on 5-HT2A, the activation at 0.3 µM is 3.07% and the activation at 30 µM was found to be 70.7%. Besides, at 5-HT2B, the activation at 0.3 µM turned out to be 16.3% and the activation at 30 µM stood at 74.7%.
Regarding `OC[C@@H]1CCN1CCc1c[nH]c2ccccc12` [Compound 54, (S)-(1-(2-(1H-indol-3-yl)ethyl)azetidin-2-yl)methanol], on 5-HT2A, the response was half-maximal at 249 nM (EC50), the activation at 0.3 µM came to 81.1% and the activation at 30 µM was determined as 101%. Besides, at 5-HT2B, the EC50 stood at 780 nM, the activation at 0.3 µM amounted to 62% and the activation at 30 µM amounted to 97.9%.
`CC(C)OC(=O)[C@@H]1CCCN1CCc1c[nH]c2ccccc12` [Compound 55, isopropyl (2-(1H-indol-3-yl)ethyl)-L-prolinate]: on 5-HT2A, it took 358 nM to reach a half-maximal effect (EC50), the activation at 0.3 µM was determined as 68.1% and the activation at 30 µM worked out at 101%. Also, on 5-HT2B, the EC50 is 1040 nM, the activation at 0.3 µM worked out at 37.7% and the activation at 30 µM amounted to 102%.
`OC[C@@H]1CCCN1CCc1c(Br)[nH]c2ccccc12` [Compound 57, (S)-(1-(2-(2-bromo-1H-indol-3-yl)ethyl)pyrrolidin-2-yl)methanol]: the activation at 0.3 µM at 5-HT2A is 4.69%; on 5-HT2B, -1.03%. For the same molecule, the activation at 30 µM at 5-HT2A is 30.9%; on 5-HT2B it was 73%.
With `OC[C@@H]1CCCN1CCc1c[nH]c2ccc(F)cc12` [Compound 59, (S)-(1-(2-(5-fluoro-1H-indol-3-yl)ethyl)pyrrolidin-2-yl)methanol], at 5-HT2A, the EC50 was determined as 7.7 nM, the activation at 0.3 µM turned out to be 86.3% and the activation at 30 µM came to 89.4%. Moreover, at 5-HT2B, the EC50 worked out at 8.9 nM, the activation at 0.3 µM was determined as 79.8% and the activation at 30 µM was determined as 85.7%.
As for `OC[C@@H]1CCCN1CCc1c[nH]c2ccc(OC(F)(F)F)cc12` [Compound 61, (S)-(1-(2-(5-(trifluoromethoxy)-1H-indol-3-yl)ethyl)pyrrolidin-2-yl)methanol], on 5-HT2A, the response was half-maximal at 76 nM (EC50), the activation at 0.3 µM was 46.1% and the activation at 30 µM was found to be 88.3%. On 5-HT2B, the midpoint of the response, the EC50, lay at 57.7 nM; the activation at 0.3 µM was found to be 37.5%; the activation at 30 µM is 76.2%.
In the case of `COc1cccc2[nH]c(Br)c(CCN3CCCC3CO)c12` (stereo not shown) [Compound 67, (1-(2-(2-bromo-4-methoxy-1H-indol-3-yl)ethyl)pyrrolidin-2-yl)methanol], at 5-HT2A, the activation at 0.3 µM is 27.2% and the activation at 30 µM was found to be 95.9%. In addition, on 5-HT2B, the activation at 0.3 µM is 19.2% and the activation at 30 µM was found to be 87.1%.
Taken in the same sequence, the figures for `OCC1CCCN1CCc1c(Br)[nH]c2ccc(F)cc12` (stereo not shown) [Compound 69, (1-(2-(2-bromo-5-fluoro-1H-indol-3-yl)ethyl)pyrrolidin-2-yl)methanol] were 15.1%, 83.8%, 27.6% and 90.5%.
For `OCC1CCCN1CCc1c(Cl)[nH]c2ccc(F)cc12` (stereo not shown) [Compound 70, (1-(2-(2-chloro-5-fluoro-1H-indol-3-yl)ethyl)pyrrolidin-2-yl)methanol], the activation at 0.3 µM is 61% on 5-HT2A and 55.1% at 5-HT2B. The figures for the activation at 30 µM at 5-HT2A and on 5-HT2B were 97.7% and 99.8%, respectively.
Turning to `COc1ccc2[nH]c(Br)c(CCN3CCCC3CO)c2c1` (stereo not shown) [Compound 72, (1-(2-(2-bromo-5-methoxy-1H-indol-3-yl)ethyl)pyrrolidin-2-yl)methanol], at 5-HT2A, the activation at 0.3 µM was 5.63% and the activation at 30 µM amounted to 37.6%. Besides, at 5-HT2B, the activation at 0.3 µM came to 13.5% and the activation at 30 µM turned out to be 41.7%.
`C[C@H](O)[C@@H]1CCCN1CCc1c[nH]c2ccccc12` [Compound 73, (S)-1-((S)-1-(2-(1H-indol-3-yl)ethyl)pyrrolidin-2-yl)ethan-1-ol]: on 5-HT2A, the EC50 is 557 nM, the activation at 0.3 µM was 61.9% and the activation at 30 µM was found to be 101%. Moreover, on 5-HT2B, the EC50 amounted to 958 nM, the activation at 0.3 µM was 61.2% and the activation at 30 µM is 104%.
